Here are results for 16 molecules from ChEMBL document CHEMBL3351798, “Discovery of the CCR1 antagonist, BMS-817399, for the treatment of rheumatoid arthritis” (J Med Chem, 2014).

Series [1] addresses T1, C-C chemokine receptor type 1 (Homo sapiens, UniProt P32246).
T1 sequence (P32246 whole entry): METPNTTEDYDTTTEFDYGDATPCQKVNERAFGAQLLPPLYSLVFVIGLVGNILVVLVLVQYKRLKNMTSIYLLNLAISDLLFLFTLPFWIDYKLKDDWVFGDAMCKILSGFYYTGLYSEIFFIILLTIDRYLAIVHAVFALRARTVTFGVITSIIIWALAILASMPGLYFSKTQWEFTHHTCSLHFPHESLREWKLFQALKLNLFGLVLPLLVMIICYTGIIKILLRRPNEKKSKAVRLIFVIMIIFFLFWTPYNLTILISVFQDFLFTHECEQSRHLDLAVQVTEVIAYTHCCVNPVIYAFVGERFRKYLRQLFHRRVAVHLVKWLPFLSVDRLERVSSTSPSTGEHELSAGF
Briefly: Displacement of [125I]MIP-1alpha from CCR1 in human THP1 cells. The series is classed as cell-based, THP-1.

Series [2] addresses T2, Nuclear receptor subfamily 1 group I member 2 (Homo sapiens, UniProt O75469).
T2 sequence (O75469 whole entry): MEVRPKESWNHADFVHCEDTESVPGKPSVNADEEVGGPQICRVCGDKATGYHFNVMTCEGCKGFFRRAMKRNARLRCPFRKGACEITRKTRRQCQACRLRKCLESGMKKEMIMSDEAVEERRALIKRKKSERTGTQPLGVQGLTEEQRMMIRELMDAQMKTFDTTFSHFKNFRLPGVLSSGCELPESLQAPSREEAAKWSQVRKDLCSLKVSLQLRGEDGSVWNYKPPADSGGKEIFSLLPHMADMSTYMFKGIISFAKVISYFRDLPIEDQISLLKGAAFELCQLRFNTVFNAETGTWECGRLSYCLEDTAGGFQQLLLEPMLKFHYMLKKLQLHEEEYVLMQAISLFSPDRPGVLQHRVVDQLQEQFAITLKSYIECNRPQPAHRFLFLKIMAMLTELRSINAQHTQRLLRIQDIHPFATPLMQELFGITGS
Put plainly: Transactivation of human full-length PXR transfected in human HepG2 cells after 24 hrs by luciferase reporter gene assay. The series is classed as cell-based. Particulars: for EC20: human, hepg2, 24 h.

A short description of series [3]: Metabolic stability in mouse liver microsomes assessed as compound remaining at 3 uM after 60 mins by UV-LC/MS analysis. The class given is ADME. The conditions noted are these: read-out: Stability.
Series [4] is described as follows: Metabolic stability in human liver microsomes assessed as compound remaining at 3 uM after 60 mins by UV-LC/MS analysis. The class given is ADME. The conditions noted are these: read-out: Stability.
Series [5] in a line: Metabolic stability in rat liver microsomes assessed as compound remaining at 3 uM after 60 mins by UV-LC/MS analysis. The class given is ADME. The conditions noted are these: read-out: Stability.
A short description of series [6]: Metabolic stability in mouse liver microsomes assessed as compound remaining at 0.5 uM after 60 mins by UV-LC/MS analysis. The series is classed as ADME. Particulars: read-out: Stability.
A short description of series [7]: Metabolic stability in human liver microsomes assessed as compound remaining at 0.5 uM after 60 mins by UV-LC/MS analysis. The series is classed as ADME. Particulars: read-out: Stability.
Series [8] is described as follows: Metabolic stability in rat liver microsomes assessed as compound remaining at 0.5 uM after 60 mins by UV-LC/MS analysis. The series is classed as ADME. The conditions noted are these: read-out: Stability.

Turning to `CC(C)[C@@H](NC(=O)NC1CCCC1)C(=O)N1CC[C@](O)(c2ccc(Cl)cc2)C(C)(C)C1`, the 50% inhibitory concentration (IC50) in series [1] turned out to be 2 nM. This molecule registered an EC20 in series [2] of 7100 nM. The remaining at 1 h, 3 µM is 68% in series [3], 77% in series [4] and 57% in series [5].
In turn, `CC(C)[C@@H](NC(=O)N[C@@H]1CC[C@@H](O)C1)C(=O)N1CC[C@](O)(c2ccc(Cl)cc2)C(C)(C)C1` came in with an IC50 in series [1] of 4 nM. The molecule further gave an EC50 in series [2] of over 50000 nM. In addition, the remaining at 1 h, 3 µM was 100% in series [3], 100% in series [4] and 84% in series [5].
Consider `CC(C)[C@@H](NC(=O)CCC(C)(C)O)C(=O)N1CC[C@](O)(c2ccc(Cl)cc2)C(C)(C)C1`, for which the remaining at 1 h, 0.5 µM came out at 74% in series [6], 91% in series [7] and 35% in series [8]. Moreover, the IC50 in series [1] was determined as 2 nM. Moreover, the response in series [2] was half-maximal at 25000 nM (EC50).
`CC[C@@H](C)NC(=O)N[C@@H](C(=O)N1CC[C@](O)(c2ccc(Cl)cc2)C(C)(C)C1)C(C)C` had an IC50 in series [1] of 3 nM. This molecule yielded a 20% effect concentration (EC20) in series [2] of 5200 nM. The values for the remaining at 1 h, 3 µM in series [3], in series [4] and in series [5] were 72%, 59% and 85%, respectively.
Turning to `CC(C)[C@@H](NC(=O)NCc1ccccc1)C(=O)N1CC[C@](O)(c2ccc(Cl)cc2)C(C)(C)C1`, the IC50 in series [1] amounted to 1 nM. In series [2], this molecule came in with an EC20 of 2200 nM. Besides, the remaining at 1 h, 3 µM in series [3] was 2%; in series [4] it was 3%; in series [5] it was 1%.
In series [1], `CC(C)[C@@H](NC(=O)Nc1ccccc1)C(=O)N1CC[C@](O)(c2ccc(Cl)cc2)C(C)(C)C1` returned a concentration for half-maximal inhibition (IC50) of 20 nM.
In the case of `CC(C)[C@@H](NC(=O)N[C@H]1CC[C@H](O)C1)C(=O)N1CC[C@](O)(c2ccc(Cl)cc2)C(C)(C)C1`, the IC50 in series [1] is 3 nM. Besides, it took 5700 nM to reach a half-maximal effect in series [2] (EC50). Further, the remaining at 1 h, 3 µM in series [3] was found to be 100%; in series [4], 99%; in series [5], 96%.
In the same order, the values of `CC(C)[C@@H](NC(=O)CC(C)(C)O)C(=O)N1CC[C@](O)(c2ccc(Cl)cc2)C(C)(C)C1` are 3 nM, 2300 nM, 100%, 100% and 84%.
As for `CC(C)[C@@H](NC(=O)N[C@H]1CC[C@@H](O)C1)C(=O)N1CC[C@](O)(c2ccc(Cl)cc2)C(C)(C)C1`, in series [1], the half-maximal inhibitory concentration (IC50) came to 3 nM. In series [2], this molecule displayed an EC50 of 19000 nM. Besides, the remaining at 1 h, 3 µM was 100% in series [3], 92% in series [4] and 83% in series [5].
In series [1], `CC[C@H](C)NC(=O)N[C@@H](C(=O)N1CC[C@](O)(c2ccc(Cl)cc2)C(C)(C)C1)C(C)C` displayed a half-maximal inhibitory concentration (IC50) of 2 nM. For the same molecule, in series [2], the 20% effect concentration (EC20) worked out at 8700 nM. Moreover, the results for the remaining at 1 h, 3 µM in series [3], in series [4] and in series [5] were 87%, 65% and 89%, respectively.
For the molecule `CC(C)[C@@H](NC(=O)NC[C@H](C)O)C(=O)N1CC[C@](O)(c2ccc(Cl)cc2)C(C)(C)C1`, the remaining at 1 h, 0.5 µM in series [6] was determined as 95%; in series [7], 88%; in series [8] it was 79%. For the same molecule, the IC50 in series [1] was 2 nM. In series [2], this molecule registered an EC50 of over 25000 nM.
With `CC(C)[C@@H](NC(=O)C[C@H](C)O)C(=O)N1CC[C@](O)(c2ccc(Cl)cc2)C(C)(C)C1`, the IC50 in series [1] is 11 nM.
Molecule `CC(C)[C@@H](NC(=O)N[C@@H]1CC[C@H](O)C1)C(=O)N1CC[C@](O)(c2ccc(Cl)cc2)C(C)(C)C1` displayed an IC50 in series [1] of 2 nM. For the same molecule, the half-maximal effective concentration (EC50) in series [2] is over 50000 nM. Also, the remaining at 1 h, 3 µM in series [3] came to 86%; in series [4], 76%; in series [5], 75%.
For `CC(C)[C@@H](NC(=O)C[C@@H](C)O)C(=O)N1CC[C@](O)(c2ccc(Cl)cc2)C(C)(C)C1`, the IC50 in series [1] turned out to be 2 nM. This molecule also yielded a concentration for a half-maximal effect (EC50) in series [2] of 7800 nM. The values for the remaining at 1 h, 3 µM in series [3], in series [4] and in series [5] were 85%, 87% and 79%, respectively.
Take `CC(C)[C@@H](NC(=O)N1CCCC1)C(=O)N1CC[C@](O)(c2ccc(Cl)cc2)C(C)(C)C1`: the concentration for half-maximal inhibition (IC50) in series [1] amounted to 9 nM. The molecule further showed a 20% effect concentration (EC20) in series [2] of 800 nM. The remaining at 1 h, 3 µM in series [3] worked out at 19%; in series [4] it was 2%; in series [5], 11%.
As to `CC(C)[C@@H](NC(=O)NC[C@@H](C)O)C(=O)N1CC[C@](O)(c2ccc(Cl)cc2)C(C)(C)C1`, the remaining at 1 h, 0.5 µM in series [6] came out at 86%; in series [7] it was 88%; in series [8], 78%. In series [1], the IC50 was found to be 2 nM. In series [2], this molecule showed a concentration giving a half-maximal response (EC50) of over 25000 nM.
